Test results reported in patent US9125930B2, “EGFR aptamer inhibitor for use in therapy and diagnosis” (CONSIGLIO NAZIONALE DELLE RICERCHE, priority 2010, dated 2015).

Key:
[1] = biological target: T1, soluble extracellular domain of human EGFR (EC-EGFR) (Homo sapiens, UniProt P00533); experiment: Filter binding on soluble extracellular domain of EGFR
T1 construct: purchased R&D Systems
Experimental: (§1) Binding experiments were performed with 5′-[^32P]-labeled RNA. For labeling 2′-F-Py RNAs were 5′-end dephosphorylated using bacterial alcaline phosphatase (Invitrogen, Carlsbad, Calif.) before [^32P]-5′-end-labeled using T4 kinase (Invitrogen) and γ-[^32P]-ATP (6×10^3 Ci/mmol, GE Healthcare Bio-Sciences, Uppsala, Sweden) according to the supplier's instructions.
(§2) The aptamers ability to bind EGFR or ErbB3 soluble extracellular domain (EC-EGFR and EC-ErbB3) was investigated by filter binding by plotting the fraction of RNA bound to the nitrocellulose filter as a function of protein concentration, using the following equation:
(§3) [formula] where Bmax is the extrapolated maximal amount of RNA:protein complex that will be bound. 1 nM of radiolabelled aptamers (CL4 42-81 aptamer or the scrambled sequence) were incubated with 1, 3.2, 10, 32, 100, 320 and 1000 nM of EC-EGFR and EC-ErbB3 (all from R&D Systems, Minneapolis, Minn.) for 15 min at 37° in phosphate-buffered saline (PBS) supplemented with 0.01% bovine serum albumin.
(§4) In order to test the binding for dimeric and monomeric proteins, 1 nM of radiolabelled aptamers (CL4 42-81 or scrambled) were incubated with 20 nM of EC-EGFR and EC-ErbB3 without or with 5 mM DTT.
(§5) After incubation, the aptamer-protein mix was passed through nitrocellulose membrane filter (Millipore Co., Bedford, Mass.) and filters were counted. […]

[2] = tested on: caspase-3; experiment: Caspase-3 activity assay in A549 cells; assay type: cell-based, human; conditions: A549, 200 nM, 6 hs
Experimental: A549 cells were treated with 200 nM CL4 42-81 or the scrambled aptamer for 6 hs. To determine caspase activity cell lysates (50 μg) were incubated at 37° C. for 1 h with 50 μM of a specific fluorometric substrate (Ac-DEVD-AFC for caspase-3, Ac-IETD-AFC for caspase-8, both from Alexis Bichemicals, San Diego, Calif.). Cleavage of the fluorometric substrate were determined using a Fluorometer, with excitation at 400 nm and emission at 505 nm wavelengths.

[3] = tested on: A549 cells; experiment: Apoptosis assay by PI staining and FACS; assay type: cell-based, human; parameters: dose or concentration left out as unconfirmed
Experimental: For apoptosis assay, DNA content analysis was performed by staining with propidium iodide (PI) and analyzing cells by flow cytometry (FACS).
[…] Cells were incubated with 2 μg/ml propidium iodide (PI, Sigma, St. Louis, Mo.) for 30 min at 4° C. and recovered. The relative proportion of cells with DNA content indicative of apoptosis (ipoploid) was determined by FACS.

[4] = biological target: T2, soluble extracellular domain of human ErbB3 (EC-ErbB3) (Homo sapiens, UniProt P21860); experiment: Filter binding on soluble extracellular domain of ErbB3
T2 construct: purchased R&D Systems
Experimental: as §1, §2, §3, §4, §5

[5] = tested on: glioma U87MG; experiment: Binding on U87MG cells; parameters: species or system human; conditions: no or very low expression of EGFR; 100 nM
Experimental: as §1
(§6) For binding experiments on cells, 3.5×10^4 cells were plated in 24-well plates in triplicate and were incubated with CL4 42-81 aptamer the scrambled sequence used as a negative control at 100 nM concentration in 200 μl of DMEM serum free for 20 min at RT in the presence of 100 μg/ml polyinosine as a nonspecific competitor (Sigma, St. Louis, Mo.). After five washings with 500 μl DMEM, bound sequences were recovered in 300 μl of SDS 1%, and the amount of radioactivity recovered was counted.

[6] = tested on: Calu1 cells; experiment: Binding on Calu1 cells; parameters: species or system human; conditions: EGFR-positive; 100 nM
Experimental: as §1, §6

[7] = biological target: EGFR (Homo sapiens, UniProt P00533); experiment: Immunoblot of pEGFR in A549 xenograft tumor lysates; assay type: in vivo, mouse; parameters: from tissue; host or cells: A549 xenograft tumours excised from athymic CD-1 nude mice; conditions: pooled tumor lysates
Experimental: FIG. 8. (A) A549 cells (2,000 cells/well in 24-well plates) were treated for 24 h or 48 h with CL4 42-81 or CL4 scrambled (200 nM-final concentration) and proliferation was determined by [^3H]-thymidine incorporation. Vertical bars indicate the standard deviation values. […] Day 0 marks the first day of injection. Data are shown as means±s.e.m. (n=8 tumors). (C) Three tumors per group selected randomly were excised, lysed, and the pooled lysates were immunoblotted with anti-pEGFR, anti-EGFR, anti-caspase-3, anti-cleaved caspase-8 and anti-αtubulin antibodies, as indicated. Molecular weights of indicated proteins are reported. (D) Cell lysates as in (C) were analyzed by caspase-3 fluorimetric assays.
Athymic CD-1 nude mice (nu/nu) were housed in a highly controlled microbiological environment, thus to guarantee specific pathogen free conditions. Mice were injected subcutaneously with 3×10^6 (in 100 μl) in vitro propagated A549. Sixteen non-necrotic tumors of about 0.5 cm in diameter were randomly divided into two groups of eight mice as follows: group 1, CL4 scrambled-treated; group 2, CL4 42-81-treated. Aptamers (200 pmols/injection) were injected intra-tumorally in 100-1 μl volumes three times a week for 16 days. Tumors were measured every 2 days.

[8] = tested on: A431 tumors; experiment: Tumor growth in A431 mouse xenograft; assay type: in vivo; conditions: 200 pmoles intratumoral
Experimental: Athymic nude mice (nu/nu) were maintained in a sterile environment according to guidelines for Animal Care. Mice were inoculated with either 3×10^6 (in 100 μl) in vitro propagated A431 cells subcutaneously injected into each flank. Approximately 24 non-necrotic tumors for each tumor type, of about 1 cm in diameter, were randomly divided into three groups of eight mice per treatment group as follows: group 1, no treatment; group 2, treated with scrambled RNA as a negative control (200 pmols/injection); group 3, treated with CL4 42-81 (200 pmols/injection). Compounds were injected intra-tumorally in 100-1 μl volumes three times a week for two weeks. Day 0 marks the first day of injection. The aptamers may also be administered systemically, in particular when optimized by addition of polyethylene glycol (PEG).
The volume injections are small enough to preclude the compounds being forced inside the cells due to a nonspecific high-pressure injection. Tumors were measured every 3 days with calipers in three dimensions. The following formula was used to calculate tumor volume: VT=(W×L×H)×0.5236 (W, the shortest dimension; L, the longest dimension; H, the intermediate dimension). The growth curves are plotted as the means tumor volume±s.e.m. Statistical analysis of tumor size data was conducted using a one-way ANOVA. A P-value of 0.05 or less was considered to indicate a significant difference. […]

[9] = Half life of the aptamer in serum; assay type: in vitro ADME; conditions: in 10% serum

T2 sequence (P21860 20-643 limits assumed): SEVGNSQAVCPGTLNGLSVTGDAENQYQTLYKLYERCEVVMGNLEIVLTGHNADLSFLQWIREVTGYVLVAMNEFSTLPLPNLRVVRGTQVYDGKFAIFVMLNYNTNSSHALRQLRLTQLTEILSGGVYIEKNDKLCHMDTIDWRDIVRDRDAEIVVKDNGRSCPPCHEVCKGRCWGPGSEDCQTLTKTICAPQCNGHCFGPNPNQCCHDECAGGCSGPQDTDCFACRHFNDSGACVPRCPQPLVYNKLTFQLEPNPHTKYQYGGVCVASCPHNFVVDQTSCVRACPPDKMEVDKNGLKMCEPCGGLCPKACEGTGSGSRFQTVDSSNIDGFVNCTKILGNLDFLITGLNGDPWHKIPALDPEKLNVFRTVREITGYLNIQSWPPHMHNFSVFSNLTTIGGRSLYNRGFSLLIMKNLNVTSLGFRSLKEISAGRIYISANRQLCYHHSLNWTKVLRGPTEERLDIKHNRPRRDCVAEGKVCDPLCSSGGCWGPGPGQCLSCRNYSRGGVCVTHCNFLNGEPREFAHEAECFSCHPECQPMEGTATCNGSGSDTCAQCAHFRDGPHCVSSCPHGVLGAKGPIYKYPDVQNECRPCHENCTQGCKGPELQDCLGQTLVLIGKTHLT

CL4 42-81: 2′-fluoropyrimidine nuclease-resistant RNA aptamer of 39 nt: 5′ GCCUUAGUAACGUGCUUUGAUGUCGAUUCGACAGGAGGC 3′ (SEQ ID No. 1) (2'-fluoro at CU, RNA at AG, backbone not given here)
Kd [1]: 10 nM | activation of caspase-3 [2]: strongly induce activation | percentage of apoptotic cells (sub-G1 peak) ([3]; A549, 24 hs): about 30% | percentage of apoptotic cells (sub-G1 peak) ([3]; A549, 48 hs): 40% | affinity for EC-ErbB3, magnitude lower ([4]; does not bind or binds with lower affinity): at least 10^3 | Kd ([4]; filter binding, EC-ErbB3, protein up to 1000 nM): no Kd value could be calculated | binding on U87MG cells [5]: does not bind | binding on Calu1 cells [6]: binds | extent of EGFR tyrosine phosphorylation in xenograft tumors [7]: decreases | tumor growth from day 9 to day 15 ([8]; three times a week): stopped to grow and was reduced in volume | tumor volume ([8]; three times a week for two weeks): pronounced reduction in tumor volume | half life of the aptamer [9]: 6 h
